Values quoted from earlier work, collected in publication PMC6269737, “Effect of Honokiol on Cytochrome P450 and UDP-Glucuronosyltransferase Enzyme Activities in Human Liver Microsomes” (Molecules, 2013).

Legend:
CYP2C8 = target: T1, CYP2C8 (Homo sapiens, UniProt P10632); conditions: cited from earlier work
T1 sequence (P10632 1-490): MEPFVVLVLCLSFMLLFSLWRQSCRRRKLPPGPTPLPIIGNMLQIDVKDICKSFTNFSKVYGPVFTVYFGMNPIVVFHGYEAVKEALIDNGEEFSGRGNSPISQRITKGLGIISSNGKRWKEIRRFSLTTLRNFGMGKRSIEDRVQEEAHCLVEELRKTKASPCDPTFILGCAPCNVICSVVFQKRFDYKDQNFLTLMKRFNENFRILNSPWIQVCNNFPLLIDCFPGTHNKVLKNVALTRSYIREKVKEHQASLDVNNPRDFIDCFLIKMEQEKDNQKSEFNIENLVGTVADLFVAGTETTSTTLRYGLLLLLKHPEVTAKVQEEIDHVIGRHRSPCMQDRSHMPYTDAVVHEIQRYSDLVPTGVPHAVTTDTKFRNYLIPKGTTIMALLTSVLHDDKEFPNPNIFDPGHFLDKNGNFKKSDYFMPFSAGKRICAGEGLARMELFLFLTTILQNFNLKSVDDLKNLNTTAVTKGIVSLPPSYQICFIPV

UGT1A9 = target: T2, UGT1A9 (Homo sapiens, UniProt O60656); design: method as in PMID 21245288; conditions: selective UGT1A9 inhibitor; cited from earlier work
T2 sequence (O60656 26-530): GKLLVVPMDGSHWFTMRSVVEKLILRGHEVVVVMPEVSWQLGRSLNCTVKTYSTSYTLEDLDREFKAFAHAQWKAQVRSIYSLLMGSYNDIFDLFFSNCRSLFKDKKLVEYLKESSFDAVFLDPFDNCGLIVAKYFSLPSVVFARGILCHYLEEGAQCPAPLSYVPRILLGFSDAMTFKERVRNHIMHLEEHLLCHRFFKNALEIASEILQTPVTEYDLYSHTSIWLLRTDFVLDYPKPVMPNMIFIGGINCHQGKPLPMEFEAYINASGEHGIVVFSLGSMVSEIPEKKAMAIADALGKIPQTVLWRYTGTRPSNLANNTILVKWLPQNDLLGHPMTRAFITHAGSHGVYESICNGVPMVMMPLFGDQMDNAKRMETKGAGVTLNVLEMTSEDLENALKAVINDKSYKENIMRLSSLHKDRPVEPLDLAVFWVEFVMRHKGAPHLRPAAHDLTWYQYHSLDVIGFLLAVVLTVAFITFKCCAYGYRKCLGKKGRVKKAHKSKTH

CYP1A2 = target: T3, CYP1A2 (Homo sapiens, UniProt P05177); design: method as in PMID 23446989; conditions: inhibitory effect towards CYP1A2; cited from earlier work
T3 sequence (P05177 1-516): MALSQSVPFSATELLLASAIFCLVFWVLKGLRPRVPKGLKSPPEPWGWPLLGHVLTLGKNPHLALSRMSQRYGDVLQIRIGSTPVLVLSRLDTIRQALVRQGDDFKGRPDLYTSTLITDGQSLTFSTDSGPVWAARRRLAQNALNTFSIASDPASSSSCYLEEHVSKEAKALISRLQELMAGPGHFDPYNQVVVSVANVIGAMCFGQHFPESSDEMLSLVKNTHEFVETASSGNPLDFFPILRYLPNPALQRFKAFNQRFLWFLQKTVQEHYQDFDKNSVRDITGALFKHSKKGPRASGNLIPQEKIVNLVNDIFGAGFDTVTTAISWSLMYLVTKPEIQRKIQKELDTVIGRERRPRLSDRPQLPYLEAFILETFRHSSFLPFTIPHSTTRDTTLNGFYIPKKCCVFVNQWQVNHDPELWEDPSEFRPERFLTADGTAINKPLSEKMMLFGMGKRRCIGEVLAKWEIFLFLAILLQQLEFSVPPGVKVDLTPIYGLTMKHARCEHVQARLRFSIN

CYP2B6 = target: T4, CYP2B6 (Homo sapiens, UniProt P20813); design: method as in PMID 23446989; conditions: inhibitory effect towards CYP2B6; cited from earlier work
T4 sequence (P20813 1-491): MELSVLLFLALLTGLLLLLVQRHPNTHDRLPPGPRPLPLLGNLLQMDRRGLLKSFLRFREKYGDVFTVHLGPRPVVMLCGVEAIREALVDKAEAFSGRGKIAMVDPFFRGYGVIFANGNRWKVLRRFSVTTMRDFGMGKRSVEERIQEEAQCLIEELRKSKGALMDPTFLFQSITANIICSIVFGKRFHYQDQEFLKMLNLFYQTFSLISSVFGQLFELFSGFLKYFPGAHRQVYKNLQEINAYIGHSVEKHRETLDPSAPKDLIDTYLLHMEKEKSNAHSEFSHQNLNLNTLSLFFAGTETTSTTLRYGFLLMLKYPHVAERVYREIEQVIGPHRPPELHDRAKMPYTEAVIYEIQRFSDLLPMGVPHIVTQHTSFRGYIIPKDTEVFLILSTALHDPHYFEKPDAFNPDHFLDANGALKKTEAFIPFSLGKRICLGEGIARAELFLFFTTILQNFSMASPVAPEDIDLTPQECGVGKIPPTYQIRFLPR

CYP2C19 = CYP2C19 (Homo sapiens, UniProt P33261); design: method as in PMID 23446989; conditions: inhibitory effect towards CYP2C19; cited from earlier work
CYP2C9 = CYP2C9 (Homo sapiens, UniProt P11712); conditions: inhibitory effect towards CYP2C9; cited from earlier work
Sequence of CYP2C9 (P11712 whole entry): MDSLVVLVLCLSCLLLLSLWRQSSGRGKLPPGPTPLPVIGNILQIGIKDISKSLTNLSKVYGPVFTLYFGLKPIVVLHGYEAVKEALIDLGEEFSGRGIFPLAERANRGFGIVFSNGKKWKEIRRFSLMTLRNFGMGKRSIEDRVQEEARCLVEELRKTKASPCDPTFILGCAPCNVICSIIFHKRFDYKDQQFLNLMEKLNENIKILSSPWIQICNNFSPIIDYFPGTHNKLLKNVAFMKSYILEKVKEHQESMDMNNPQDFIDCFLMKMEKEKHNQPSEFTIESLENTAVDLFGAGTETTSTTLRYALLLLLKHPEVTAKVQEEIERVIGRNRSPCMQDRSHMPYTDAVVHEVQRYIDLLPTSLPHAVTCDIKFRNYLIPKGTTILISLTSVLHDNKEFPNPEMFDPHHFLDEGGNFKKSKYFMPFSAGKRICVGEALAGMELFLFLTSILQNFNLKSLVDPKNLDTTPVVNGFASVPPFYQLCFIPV

Sequence of CYP2C19 (P33261 whole entry): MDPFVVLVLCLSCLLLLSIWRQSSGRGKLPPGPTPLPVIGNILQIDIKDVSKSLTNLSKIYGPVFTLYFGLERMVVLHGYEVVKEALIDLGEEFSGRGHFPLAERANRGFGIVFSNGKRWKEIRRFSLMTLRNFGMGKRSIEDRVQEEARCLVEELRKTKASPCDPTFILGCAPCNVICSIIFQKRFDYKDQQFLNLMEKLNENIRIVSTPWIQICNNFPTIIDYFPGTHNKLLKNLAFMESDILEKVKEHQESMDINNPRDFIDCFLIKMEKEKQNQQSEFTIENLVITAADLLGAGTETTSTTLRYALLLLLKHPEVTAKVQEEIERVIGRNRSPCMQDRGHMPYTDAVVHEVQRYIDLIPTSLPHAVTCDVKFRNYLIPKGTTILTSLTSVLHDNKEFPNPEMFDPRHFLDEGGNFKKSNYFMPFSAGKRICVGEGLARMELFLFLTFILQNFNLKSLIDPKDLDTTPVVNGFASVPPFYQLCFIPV

Compound: Cc1ccc(C)c(OCCCC(C)(C)C(=O)O[C@@H]2O[C@H](C(=O)O)[C@@H](O)[C@H](O)[C@H]2O)c1 [gemfibrozil glucuronide]
- Ki (CYP2C8; selective CYP2C8 inhibitor): 20 to 52 µM

Compound: O=C(O)c1cccnc1Nc1cccc(C(F)(F)F)c1 [niflumic acid]
- Ki (UGT1A9): 0.1 to 0.4 µM

Compound: C=CCc1ccc(Oc2cc(CC=C)cc(O)c2O)cc1 [obovatol]
- IC50 (CYP1A2): 4.4 µM
- IC50 (CYP2B6): 13.9 µM
- IC50 (CYP2C19): 0.8 µM
- IC50 (CYP2C8; inhibitory effect towards CYP2C8): 11.1 µM
- IC50 (CYP2C9): 3.3 µM
